Measurements as given in US7378437B2, “Drugs for diabetes” (NICOX S.A., priority 2000, dated 2008).

Assays:
[1] = system: aorta of insulin-resistant rats; test: Vasorelaxing effect in vitro on isolated aorta of insulin-resistant (fructose-rich diet) rats, precontracted with phenylephrine, with or without LNNA; type: cell-based, rat; conditions: for % Relaxation, Aorta with LNNA / % Relaxation, Aorta Without LNNA: phenylephrine 10 μM precontracted, percentage with respect to non insulin-resistant controls; for vasorelaxing effect in conditions of experimental diabetes (in words): aorta of insulin-resistant rats, in the presence and in absence of LNNA
Protocol: To evaluate the strengthening effect of the drugs of the invention on the antidiabetic activity of insulin, animals (rats) are treated with a fructose rich diet (Am. J. Physiol. 275, R788-R792, 1998). In this way an insulinic resistance is induced in the animals.
The pharmacological test is a test in vitro and consists in determining the vasorelaxing activity induced by the products of the invention, measured on an isolated vessel (aorta) taken from animals treated as above mentioned. The test in vitro is carried out both in the presence and in absence of LNNA (N-nitro-L-Arginine), which is an irreversible inhibitor of the nitric oxide synthethases, to verify if the vasorelaxing effect depends on the protective endogenous substances (nitric oxide).
The capability of the compounds of the invention to exert a vasorelaxing effect both in the presence and in absence of vasoprotective substances in such conditions of experimental diabetes, (animals with a fructose rich diet, and treated with or without LNNA), is an index which allows to evaluate the antidiabetic action of the tested compound.
In the pharmacological experiment isolated vessels are used, taken from rats which have developed, as said, an insulinic resistance condition induced by administering for 4 weeks a fructose rich diet.
Male Sprague Dawley rats having an average weight equal to 150-200 g were sacrificed and bled. The abdomi-nal aorta was removed and suitably prepared for determining the myorelaxing activity in vitro according to the method described by Vogel G. H. et al., Drug Discovery Evaluation-Pharmacological Assays page 32, 1996.
A part of the specimen is treated with LNNA.
The tissues are precontracted with phenylephrine (10 μM) and the relaxation was determined in the presence or in absence of the compounds of the invention or of the reference standards. […] The results are reported in Table 1 and are expressed as a percentage with respect to the vasorelaxing effect measured in the controls.

CC(=O)Oc1ccccc1C(=O)OCc1cccc(CO[N+](=O)[O-])n1.Cl [Ex. 1, 2-acetoxybenzoic acid 6-(nitroxymethyl)-2-methylpyridinyl ester hydrochloride]
% Relaxation, Aorta with LNNA ([1]; concentration 10^−5 M): 70%
% Relaxation, Aorta Without LNNA ([1]; concentration 10^−5 M): 93%

CC(=O)Oc1ccccc1C(=O)Oc1cccc(CO[N+](=O)[O-])c1 [Ex. 2, 3-nitrooxymethylphenyl ester of the 2-acetoxybenzoic acid]
% Relaxation, Aorta with LNNA ([1]; concentration 10^−4 M): 70%
% Relaxation, Aorta Without LNNA ([1]; concentration 10^−4 M): 70%

COc1ccc2c(c1)c(CC(=O)Oc1cccc(CO[N+](=O)[O-])c1)c(C)n2C(=O)c1ccc(Cl)cc1 [Ex. 3 comp., 1-(4-chlorobenzoyl)-5-methoxy-2-methyl-3-indolacetic acid 3′-(nitroxymethyl)phenyl ester, reference compound]
vasorelaxing effect in conditions of experimental diabetes (in words) [1]: did not result active
% Relaxation, Aorta with LNNA ([1]; concentration 10^−6 M): 20%
% Relaxation, Aorta Without LNNA ([1]; concentration 10^−6 M): 20%

CC(=O)Oc1ccccc1C(=O)Oc1ccc(CO[N+](=O)[O-])cc1 [Ex. 6, 2-(acetyloxy)benzoic acid 4-(nitroxymethyl) phenyl ester]
melting point: 86 to 88 °C
% Relaxation, Aorta with LNNA ([1]; concentration 10^−5 M): 65%
% Relaxation, Aorta Without LNNA ([1]; concentration 10^−5 M): 90%

CN(C)C(=N)N=C(N)N [Metformin, reference compound]
vasorelaxing effect in conditions of experimental diabetes (in words) [1]: active only in the absence of the inhibitor of the NO synthesis
% Relaxation, Aorta with LNNA ([1]; concentration 10^−4 M): 30%
% Relaxation, Aorta Without LNNA ([1]; concentration 10^−4 M): 90%
